In article PMC10892409, “Exploring Ocimum basilicum’s Secondary Metabolites: Inhibition and Molecular Docking against Rhynchophorus ferrugineus for Optimal Action” (Plants, 2024):
Values after ≈ are worked out from the molar mass of the structure shown. Values joined by “and” are separate entries in the source; they are usually repeats but may differ in a detail not shown here. Equal entries are not always repeated. Where two headings read alike, the source gives them in different places.

Legend:
R. ferrugineus adults = assay: Antifeedant/insecticidal test on adults with treated sugarcane stem (probit LC50); assay type: in vivo, Rhynchophorus ferrugineus; details: after 1 day of treatment, 95% confidence limits in brackets
Description: (§1) Over the course of 40 days, an O. basilicum cell suspension was cultivated in this investigation, and then the extract was obtained. […] Long segments of sugarcane stem were employed in the insect breeding lab at King Faisal University’s Research and Training Center to raise adult R. ferrugineus larvae. For this experiment, we used a topical application technique with larvae stored at 4 °C for five minutes to test the extract’s activity. Using a hand-operated micro-applicator (Burkard Manufacturing Co., Ltd., Hertfordshire, UK, collected using a […] micro-syringe), extracts at escalating ratios (10 µL) were injected into the dorsal surface of the larvae (Ito Corp.; MS-N50, Shizuoka, Japan). Five larvae per box in a series of three replicates were fed on sugarcane stem pieces measuring 10 cm in length. The LD50 was calculated by measuring the percentage of dead larvae at 24, 48, 72, and 96 h following a topical application. The antifeedant impact was determined in adults by giving them 10 cm sugarcane stem segments cut in half longitudinally. Long strips of sugarcane stem (32 cm^2) were immersed in the previous serial extract and compound concentration (10 mL) for ten seconds before they were dried in ambient air using a plastic box. Each box included a new pair of larvae (a male and a female). Ten sets of each treatment were performed. Data on how well the subjects ate were evaluated at 24, 48, 72, and 96 h.
(§2) The tissue culture parameters were calculated quantitatively from three independent sets of samples, and the mean SD was used to describe the findings. Toxicity parameters were determined quantitatively using a 10-replicate sample, and means and standard deviations were used to present the data. The median dosage obtained from a dose–response regression was used to calculate the LC50 value. By analyzing the comparative growth rate vs. the crude extract logarithm using least squares regression, the range of LC50 was calculated with 95% confidence. A simple variance study was performed on the increased weight and enzymatic activity data (ANOVA). The distinction between the means was accomplished using the Student–Newman–Keuls (SNK) test. Additionally, SPSS version 25 was used to find p < 0.05 significant deviations from the mean.

[1] = system: fourth-instar larvae of R. ferrugineus; assay: Topical application (contact) to fourth-instar larvae (probit LD50); assay type: in vivo, Rhynchophorus ferrugineus; details: after 1 day of treatment, 95% confidence limits in brackets
Description: as §1, §2

AChE [2] = assay: In vitro AChE inhibition, larval homogenate (Ellman); assay type: biochemical, Rhynchophorus ferrugineus; details: fourth-instar larvae preparation
Description: (§3) The R. ferrugineus were homogenized larvae in a buffer (sodium phosphate, 40 mM, and pH 7.4); then, sodium chloride (10 mM dissolved in 1% (w/v) triton X-100) was added. During centrifugation (Sigma 3–30 KS), the homogenate was chilled to 4 °C and spun at a speed of 5000 rpm (20 min). The supernatant was either immediately put into action for an enzymatic test or frozen and kept at […] for later use. Each test was repeated three times. The protein content was determined using the same protocol employed by Lowry with modification using protein extract (100 µL) combined with an alkaline copper solution and a Folin–Ciocalteu phenol reagent (2 mL and 200 µL, respectively). The intensity of the resulting blue hue was evaluated during 30 min of incubation at 25 °C. Using an ELISA plate reader and a BSA standard curve, we could calculate the protein concentration by analyzing the absorbance at 600 nm (Multiskan SkyHigh Microplate Spectrophotometer, Thermo Fisher Scientific, Waltham, MA, USA).
(§4) The enzyme AChE was assessed using a substrate of acetylthiocholine iodide and evaluated using 5,5′-dithiobis [2-nitrbenzoic acid] (DTNB), according to [94]. Each well contained a sodium phosphate buffer (140 µL) (pH: 8.0; 100 mM), DTNB (10 µL), extract (20 µL)/components at 1, 10, 50, 100, and 1000 µg/mL in DMSO and underwent 15 min of incubation at 25 °C. Acetylthiocholine (ATCh) was added to start the reaction (10 µL). The ATCh enzymatic hydrolysis produced a 5-thio-2-nitrobenzoate anion as a color (yellow) that was detected by measuring its wavelength, i.e., 412 nm, thereby allowing the researchers to track the rate of ATCh hydrolysis (15 min). Each response was performed three times on a microplate and examined using an ELISA plate reader to determine the 412 nm absorbance of the combination (Multiskan SkyHigh Microplate Spectrophotometer). The AChE-specific activity was measured as OD412/mg protein.h. based on observing the effect of raising the quantities of all of these compounds during the tests on the inhibition results, and the inhibitory concentration (IC50) was calculated. Then, a computer algorithm was used to determine the IC50 values (Version 9.01 of GraphPad Prism by Inc., 2020, San Diego, CA, USA).

ACPs [3] = assay: In vitro ACP inhibition, larval homogenate; assay type: biochemical, Rhynchophorus ferrugineus; details: fourth-instar larvae preparation
Description: as §3
(§5) Activities of ACPs and ALPs were evaluated using a modified version of the Asakura technique. The ACP test required incubating 100 μL of crude enzyme in a buffer of 650 μL of sodium acetate (pH: 5.0; 50 mM with ACPs) or 250 μL of Tris–HCl (at 50 mM; pH: 8.0 with ALPs) and p-nitrophenyl phosphate (5.5 mM). For 30 min; the various mixes were kept at 37 °C for incubation. Thereafter, 500 μL of NaOH (0.5 N) stopped the reaction. Using an ELISA plate reader, we determined the mixture’s 415 nm absorbance value (Multiskan SkyHigh Microplate Spectrophotometer). The ACP- and ALP-specific activity was estimated as OD 415/mg protein·h.

ALPs [4] = assay: In vitro ALP inhibition, larval homogenate; assay type: biochemical, Rhynchophorus ferrugineus; details: for IC50 ALPs in vitro: fourth-instar larvae preparation
Description: as §3, §5

AChE [5] = assay: In vivo AChE inhibition in treated fourth-instar larvae; parameters: species or system Rhynchophorus ferrugineus; details: fourth-instar larvae treated 24 h
Description: as §4
(§6) Each enzyme’s in vivo impact was measured after treating larvae with an extract or pure chemicals. An inhibitor-free test combination served as a negative control. We determined the absorbance of the enzymes throughout a spectrum of wavelengths using a rapid reader for ELISA plates (Multiskan SkyHigh Microplate Spectrophotometer). Extracts and pure chemicals were used to treat R. ferrugineus larvae at previous serial concentrations, and their AChE, ACP, ALP, and GABA-T activity was tested in vivo using the methods outlined above. Larvae spent a day on leaf disks treated with chemicals or extract.

ACPs [6] = assay: In vivo ACP inhibition in treated fourth-instar larvae; parameters: species or system Rhynchophorus ferrugineus; details: fourth-instar larvae treated 24 h
Description: as §5, §6

ALPs [7] = assay: In vivo ALP inhibition in treated fourth-instar larvae; parameters: species or system Rhynchophorus ferrugineus; details: fourth-instar larvae treated 24 h
Description: as §5, §6

GABA-T [8] = target: T1, GABA-T (Rhynchophorus ferrugineus, UniProt A0A834I2E4); assay: In vitro GABA-T inhibition, larval homogenate; assay type: biochemical; details: fourth-instar larvae preparation, listed as salvianolic acid B
T1 sequence (A0A834I2E4 28-494): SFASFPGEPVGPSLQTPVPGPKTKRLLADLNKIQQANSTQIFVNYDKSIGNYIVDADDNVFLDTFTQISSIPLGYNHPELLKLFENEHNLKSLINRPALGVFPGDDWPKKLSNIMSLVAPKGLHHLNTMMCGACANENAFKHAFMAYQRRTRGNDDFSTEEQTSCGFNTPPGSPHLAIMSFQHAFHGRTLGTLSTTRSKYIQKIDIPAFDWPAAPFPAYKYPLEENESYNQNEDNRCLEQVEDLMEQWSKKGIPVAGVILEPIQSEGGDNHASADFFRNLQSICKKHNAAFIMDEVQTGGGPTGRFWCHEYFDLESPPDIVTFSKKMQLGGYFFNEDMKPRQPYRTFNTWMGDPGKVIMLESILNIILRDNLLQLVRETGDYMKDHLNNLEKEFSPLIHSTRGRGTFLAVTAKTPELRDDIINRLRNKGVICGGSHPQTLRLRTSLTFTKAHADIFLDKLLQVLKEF
Description: The R. ferrugineus were homogenized larvae in a buffer (sodium phosphate, 40 mM, and pH 7.4); then, sodium chloride (10 mM dissolved in 1% (w/v) triton X-100) was added. During centrifugation (Sigma 3–30 KS), the homogenate was chilled to 4 °C and spun at a speed of 5000 rpm (20 min). The supernatant was either immediately put into action for an enzymatic test or frozen and kept at 20 °C for later use. […] The protein content was determined using the same protocol employed by Lowry with modification [93] using protein extract (100 µL) combined with an alkaline copper solution and a Folin–Ciocalteu phenol reagent (2 mL and 200 µL, respectively). The intensity of the resulting blue hue was evaluated during 30 min of incubation at 25 °C. Using an ELISA plate reader and a BSA standard curve, we could calculate the protein concentration by analyzing the absorbance at 600 nm (Multiskan SkyHigh Microplate Spectrophotometer, Thermo Fisher Scientific, Waltham, MA, USA).
The GABA-T activity was assessed with a modified version of the method published by [96]. The enzyme crude extract (25 μL) added to a solution included Tris-HCl, α-ketoglutarate, 2-mercaptoethanol, β-NAD, and GABA (50, 2, 20, and 3, respectively) at a volume of 1525 μL. […]

GABA-T [9] = target: T1, GABA-T; assay: In vivo GABA-T inhibition in treated fourth-instar larvae; details: fourth-instar larvae treated 24 h
Description: The enzyme crude extract (25 μL) added to a solution included Tris-HCl, α-ketoglutarate, 2-mercaptoethanol, β-NAD, and GABA (50, 2, 20, and 3, respectively) at a volume of 1525 μL. Finally, 30 μL of tritonx100 ((1%, (v/v)) was added to the prior combination. We used 30 min of incubation at between 25 and 30 °C. Additionally, we used an ELISA plate reader to determine the absorbance of the combination at 340 nm (Multiskan SkyHigh Microplate Spectrophotometer). Specific activities of GABA-T were measured as OD 340/mg of protein·h.

[10] = Rhynchophorus ferrugineus, 24 h, read-out: LC50

Compound | LC50 (R. ferrugineus adults; [10]) | LD50 [1] | IC50 AChE in vitro (AChE [2]) | IC50 ALP in vitro (ALPs [4]) | IC50 AChE in vivo (AChE [5]) | IC50 ACPs in vivo (ACPs [6]) | IC50 ALPs in vivo (ALPs [7]) | further results
COc1cc(/C=C/C(=O)O[C@@H](C(=O)O)[C@@H](O)C(=O)O)ccc1O [Fertaric acid] | 1530 µg/mL (≈ 4680 µM) | 19.46 (18.23–20.76) µg/Larvae | 124 ± 1.18 µg/mL | 137 µg/mL (≈ 421 µM) | 385 ± 1.18 µg/mL |  |  | LD50 ([1]; listed as fertaric acid): 19.46 µg/Larvae; IC50 AChE in vitro (AChE [2]; listed as fertaric acid): 123.6 µg/mL; IC50 ACPs in vitro (ACPs [3]; listed as fertaric acid): 133.5 µg/mL (≈ 409 µM); IC50 ALPs in vitro (ALPs [4]; listed as fertaric acid): < 200 µg/mL; IC50 AChE in vivo (AChE [5]; listed as fertaric acid): 384.7 µg/mL; IC50 ACPs in vivo (ACPs [6]; listed as fertaric acid): 349.4 µg/mL; IC50 ALPs in vivo (ALPs [7]; listed as fertaric acid): 436.8 µg/mL
O=C(/C=C/c1ccc(O)c(O)c1/C=C/c1ccc(O)c(O)c1)O[C@H](Cc1ccc(O)c(O)c1)C(=O)O [Salvianolic acid A] | 1260 µg/mL (≈ 2550 µM) | 11.3 (10.2–12.47) µg/Larvae | 94 ± 0.94 µg/mL | 116 µg/mL (≈ 234 µM) | 178.2 µg/mL | < 330 µg/mL and 226.3 µg/mL | 213.8 µg/mL | LD50 ([1]; listed as salvianolic acid A): 11.3 µg/Larvae; IC50 AChE in vitro (AChE [2]; listed as salvianolic acid A): 93.6 µg/mL; IC50 ACPs in vitro (ACPs [3]; listed as salvianolic acid A): 112.2 µg/mL (≈ 227 µM); IC50 ALPs in vitro (ALPs [4]; listed as salvianolic acid A): < 200 µg/mL
O=C(/C=C/c1ccc(O)c(O)c1)O[C@H](Cc1ccc(O)c(O)c1)C(=O)O [Rosmarinic acid] | 1430 µg/mL (≈ 3960 µM) | 11.8 (11.2–12.5) µg/Larvae | 119.2 µg/mL and 119 ± 1.14 µg/mL | 150 µg/mL (≈ 415 µM) | 235.1 µg/mL and 235 ± 1.14 µg/mL | < 330 µg/mL and 258.7 µg/mL | 256.7 µg/mL | IC50 ACPs in vitro (ACPs [3]): 139.7 µg/mL (≈ 388 µM); IC50 ALPs in vitro (ALPs [4]): < 200 µg/mL
Salvianolic acid B |  | 11.1 (10.1–12.18) µg/Larvae | 117 ± 1.08 µg/mL | 105 µg/mL | 229.7 µg/mL | < 330 µg/mL and 182.3 µg/mL | 194.6 µg/mL | LC50 (R. ferrugineus adults): 1195 (1121–1278) µg/mL; LD50 ([1]; listed as salvianolic acid B): 11.1 µg/Larvae; IC50 AChE in vitro (AChE [2]; listed as salvianolic acid B): 116.7 µg/mL; IC50 ACPs in vitro (ACPs [3]; listed as salvianolic acid B): 98.2 µg/mL; IC50 ALPs in vitro (ALPs [4]; listed as salvianolic acid B): < 200 µg/mL; IC50 GABA-T in vitro (GABA-T [8]): 197.2 µg/mL; IC50 GABA-T in vivo (GABA-T [9]): 324.8 µg/mL
